Source: patent publication US7655632B2, “Pyrazole derivative, medicinal composition containing the same, medicinal use thereof, and intermediate for production thereof” (Kissei Pharmaceutical Co., Ltd., priority 2002, dated 2010)

Legend:
[1] = target: T1, human SGLT1 (Homo sapiens, UniProt P13866); test: Assay for inhibitory effects on human SGLT1 activity (uptake of methyl-α-D-glucopyranoside in CS1-5-11D cells); format: cell-based; conditions: CHO-K1 cells stably expressing human SGLT1 (CS1-5-11D); 1 mM α-MG uptake, 37° C., 1 hour
T1 construct: expressed in transfected cells
T1 sequence (P13866 1-664): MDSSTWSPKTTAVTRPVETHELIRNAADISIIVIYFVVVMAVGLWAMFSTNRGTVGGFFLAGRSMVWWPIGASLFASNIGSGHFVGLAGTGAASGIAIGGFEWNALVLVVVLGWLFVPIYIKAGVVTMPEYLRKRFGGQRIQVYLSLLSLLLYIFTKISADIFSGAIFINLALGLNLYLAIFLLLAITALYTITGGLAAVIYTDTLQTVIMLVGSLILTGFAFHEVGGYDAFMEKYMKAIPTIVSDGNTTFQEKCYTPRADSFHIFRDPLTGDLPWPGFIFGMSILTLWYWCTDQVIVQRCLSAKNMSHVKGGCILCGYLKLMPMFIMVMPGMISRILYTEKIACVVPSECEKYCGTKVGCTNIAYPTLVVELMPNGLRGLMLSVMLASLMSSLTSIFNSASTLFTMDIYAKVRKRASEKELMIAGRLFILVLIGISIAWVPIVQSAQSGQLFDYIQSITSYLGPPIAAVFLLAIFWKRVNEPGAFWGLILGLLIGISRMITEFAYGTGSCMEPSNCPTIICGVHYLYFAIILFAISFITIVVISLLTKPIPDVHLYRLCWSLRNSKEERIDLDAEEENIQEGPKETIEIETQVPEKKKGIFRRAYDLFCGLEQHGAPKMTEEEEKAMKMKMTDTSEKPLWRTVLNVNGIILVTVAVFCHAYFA
Description: Assay for Inhibitory Effects on Human SGLT1 Activity
1) Cloning and Construction of the Vector Expressing Human SGLT1
The cDNA library was prepared for PCR amplification by reverse transcription from total RNA deprived from human small intestine (Ori gene) using oligo-dT as a primer. Using this cDNA library as a template, the DNA fragment coding 1 to 2005 bp of human SGLT1 (ACCESSION: M24847), which was reported by Hediger et al., was amplified by PCR method and inserted into the multi-cloning site of pcDNA3.1(−) (Invitrogen). The DNA sequence inserted was perfectly matched to the previously reported sequence.
2) Establishment of Cell Line Stably Expressing Human SGLT1
The expression vector of human SGLT1 was digested by Sca I into a linear DNA. The linear DNA was transfected into CHO-K1 cells by means of lipofection (Effectene Transfection Reagent: QIAGEN). Neomycin resistant cell lines were selected by culture in the medium containing G418 (1 mg/mL, LIFE TECHNOLOGIES), and then the activity against the uptake of methyl-α-D-gluco-pyranoside was measured by the method described below. […] CS1-5-11D cells were cultured in the presence of G418 at 200 μg/mL.
3) Measurement of the Inhibitory Activity Against the Uptake of methyl-α-D-glucopyranoside (α-MG)
CS1-5-11D cells were seeded into a 96-well culture plate at a density of 3×10^4 cells/well and cultured for 2 days, and were used in the uptake assay. A mixture of non-labeled (Sigma) and ^14C-labeled α-MG (Amersham Pharmcia Biotec) was added to the uptake buffer (pH 7.4; containing 140 mM sodium chloride, 2 mM potassium chloride, 1 mM calcium chloride, 1 mM magnesium chloride, 10 mM 2-[4-(2-hydroxyethyl)-1-piperazinyl]ethane sulfonic acid, and 5 mM tris(hydroxymethyl)aminomethane) at the final concentration of 1 mM. A test compound was dissolved in dimethyl sulfoxide, and then appropriately diluted with distilled water. The test compound solution was added to the uptake buffer containing 1 mM α-MG, and designated as a measurement buffer. For the control group, the measurement buffer without any test compound was prepared. For measuring the basal uptake, a basal uptake measurement buffer which contains 140 mM chorine chloride instead of sodium chloride was prepared. After removing the culture medium of CS1-5-11D cells, 180 μL of the pre-treatment buffer (the basal uptake buffer without α-MG) was added to each well and incubated at 37° C. for 10 minutes. After repeating the same treatment, the pre-treatment buffer was removed. To each well was added 75 μL of the measurement buffer or the basal uptake buffer was added and incubated at 37° C. for 1 hour. After removing the measurement buffer, cells were washed twice with 180 μL per well of the washing buffer (the basal uptake buffer containing 10 mM non-labeled α-MG). The cells were solubilized by 75 μL per well of 0.2 mol/L sodium hydroxide. The cell lysates were transferred into PicoPlates (Packard), and then added 150 μL of MicroScint-40 (Packard) and mixed. Radioactivity was measured by means of micro-scintillation counter TopCount (Packard). One hundred % was set to the difference between the uptake in the control group and the basal uptake, and the uptake of methyl α-D-gluco-pyranoside at each drug concentration were calculated.

[2] = system: diabetic rats; test: Assay for inhibitory effects on blood glucose level increase in rats (liquid meal tolerance test in diabetic rat model); format: in vivo; conditions: test compound 1 mg/kg orally, liquid meal 17.25 kcal/kg, mean ± S.E.
Description: Assay for Inhibitory Effects on Blood Glucose Level Increase in rats
1) Preparation of Diabetic Rat Model
Male wistar rats (Japan Charles River), aged 8 weeks old, were injected nicotinamide (230 mg/kg) intraperitoneally. Fifteen minutes after injection, they were injected streptozotocin (85 mg/kg) intravenously from tail vain under anesthesia with ether. After a week, rats were fasted overnight and then glucose tolerance test (2 g/kg) was done.
2) Liquid Meal Tolerance Test
After overnight fasted, the diabetic rats were orally administered a test compound (1 mg/kg), which was dissolved in distilled water, in the drug-treating group, or distilled water alone in a control group. Immediately after the compound administration, 17.25 kcal/kg of liquid meal (No. 038, Control diet, assorted with dextrin and maltose; Oriental Yeast Co., Ltd.) was loaded orally. The blood was collected from tail artery immediately before and after administration with the time course, and treated with heparin immediately. The blood was centrifuged, and the plasma was collected to quantify the plasma glucose concentration by glucose oxidase method. The values in the table are presented as the mean ±S.E.

- IC50 [1]: 18 nM
Structure (SMILES): CC(C)c1[nH]nc(O[C@@H]2O[C@H](CO)[C@H](O)[C@H](O)[C@H]2O)c1Cc1ccc(CCCC(=O)NC(C)(C)C(=O)N2CCN(C)CC2)cc1 [Example 61, 3-(β-D-Galactopyranosyloxy)-5-isopropyl-4-{[4-(3-{1-[(4-methylpiperazin-1-yl)carbonyl]-1-(methyl)ethylcarbamoyl}-propyl)phenyl]methyl}-1H-pyrazole]
- Plasma glucose concentration 0.5 h ([2]; 0.5 hour after drug administration): 136 ± 6 mg/dL
- Plasma glucose concentration 1 h ([2]; 1 hour after drug administration): 172 ± 37 mg/dL
- Plasma glucose concentration 0 h ([2]; pretreatment (0 h)): 116 ± 6 mg/dL
